Assay results: US12171876B2, “Cationic lipid compound, composition containing same and use thereof” (HANGZHOU TIANLONG PHARMACEUTICAL CO., LTD., priority 2022, dated 2024)
Values joined by “and” are separate entries in the source; they are usually repeats but may differ in a detail not shown here. Identical values can stand only once. “Also recorded” adds a separate entry of the source.

Assays:
[1] = Particle size and polydispersity index (PDI) of lipid nanoparticles by dynamic light scattering; format: physicochemical; settings: LNP formulation of Example 4, cationic lipid/DSPC/cholesterol/DMG-PEG2000 50:10:38.5:1.5; 25° C., 90° scattering angle
Description: The particle size and polydispersity index (PDI) were determined by dynamic light scattering using Malvern laser particle size analyzer.
10 μL of the liposome solution was weighed, diluted to 1 mL with RNase-free deionized water, and added to the sample pool. Each sample was measured in triplicate. The measurement conditions were: 90° scattering angle, and 25° C.

[2] = system: 293T cells; experiment: Cell survival rate assay (CCK-8); format: cell-based
Description: (§1) Cell recovery and passage: 293T cells were recovered, cultured in a culture dish, and passaged to the required number of cells.
(§2) Seeding plate: The cells in the culture dish were digested and counted. Cells were spread in a 96-well plate at 10,000 cells per well and in a 12-well plate at 150,000 cells per well. Cells were cultured overnight until the cells adhered to the wall.
A LNP formulation containing 1.5 μg of Fluc-mRNA (the carrier component of the LNP formulation was cationic lipid, neutral lipid, structured lipid and polymer-conjugated lipid with a molar ratio of 50:10:38.5:1.5, wherein the cationic lipid was listed in Table 1) was added to the cell culture medium of a 96-well plate, and further cultivated for 24 hours. 10 μL of CCK-8 solution was then added to each well, and the culture plate was incubated in an incubator for 1 hour. The absorbance at 450 nm was measured by a microplate reader.
To compare the cytotoxicity of LNP formulations prepared from cationic lipid YK-009 and compound 25, we prepared LNP formulations with Fluc-mRNA contents of 1.5 μg, 1.125 μg, 0.75 μg and 0.375 μg (the carrier components of LNP formulations were cationic lipid, neutral lipid, structured lipid and polymer-conjugated lipid with a molar ratio of 50:10:38.5:1.5, wherein the cationic lipid was YK-009 or compound 25). The assay method of cell survival rate was the same as above.

[3] = system: 293T cells; experiment: Fluorescent detection of Fluc-mRNA (transfection efficiency of LNP formulations in cells); format: cell-based
Description: as §1, §2
A LNP formulation containing 0.3 μg of Fluc-mRNA (the carrier components of the LNP formulation were cationic lipid, neutral lipid, structured lipid and polymer-conjugated lipid with a molar ratio of 50:10:38.5:1.5, wherein the cationic lipid was listed in Table 1) was added to the cell culture medium of a 96-well plate, and further incubated for 24 hours. The corresponding reagent was added according to the instructions of the […] Luciferase Assay Kit, and the fluorescence expression intensity of each well was detected by an IVIS fluorescence detection system. This test verified the transfection efficiency of LNP formulations in cells.
In order to further compare the intracellular transfection efficiency of LNP formulations prepared from cationic lipid YK-009 and compound 25, we prepared LNP formulations with Fluc-mRNA contents of 0.3 μg, 0.225 μg, 0.15 μg and 0.075 μg, respectively (the carrier components of the LNP formulation were cationic lipid, neutral lipid, structured lipid and polymer-conjugated lipid with a molar ratio of 50:10:38.5:1.5, wherein the cationic lipid was YK-009 or compound 25). The intracellular transfection activity of the prepared LNP formulations was detected, and the detection method was the same as above.

[4] = system: female BALB/C mice; experiment: Mouse live imaging test of LNP formulations of Fluc-mRNA; format: in vivo; settings: for expression intensity of Fluc-mRNA in mice over time (in words): 3 h to 72 h after intramuscular injection
Description: A LNP formulation containing 10 μg of Fluc-mRNA was intramuscularly injected into female BALB/C mice aged 4-6 weeks and weighing 17-19 g, and at specific time points (3 h, 6 h, 24 h, 48 h and 72 h) after administration, mice were injected intraperitoneally with a fluorescent imaging substrate. The mice moved freely for 5 minutes, and then the average radiation intensity (corresponding to fluorescence expression intensity) of the protein expressed by the mRNA carried by LNP in mice was detected using the IVIS Spectrum small animal live imager.
To compare the protein expression and duration in mice of LNP formulations prepared from cationic lipid YK-009 and compound 25, we prepared LNP formulations with Fluc-mRNA contents of 10 μg, 7.5 μg, 5 μg and 2.5 μg (the carrier components of LNP formulations were cationic lipid, neutral lipid, structured lipid and polymer-conjugated lipid with a molar ratio of 50:10:38.5:1.5, wherein the cationic lipid was YK-009 or compound 25). The mouse live imaging test method was the same as above.

[5] = LNP formulation containing 1.5 μg of Fluc-mRNA, 24 hours
[6] = mRNA transfection, time not stated

CCCCCCCCCCOC(=O)CCCN(CCO)CCCCCCCC(=O)OC(CCCCCCCC)CCCCCCCC [YK-005, 9-heptadecyl 8-((4-(decyloxy)-4-oxobutyl)(2-hydroxyethyl)amino)octanoate]
PDI (%) [1]: 17.3%
Particle size (nm) [1]: 148.75 nm
Cell survival rate (%) [2, 5]: 88%

CCCCCCCCCCOC(=O)CCCN(CCO)CCCCCC(=O)OCC(CCCCCCCC)CCCCCCCC [YK-009, 2-octyldecyl 6-((4-(decyloxy)-4-oxobutyl)(2-hydroxyethyl)amino)hexanoate]
RLU value / cell transfection efficiency, times that of MC3 ([3]; Fluc-mRNA LNP formulation): 42 times and 40 times
RLU value / cell transfection efficiency, times that of YK-004 ([3]; Fluc-mRNA LNP formulation): 39 times
RLU value / cell transfection efficiency, times that of YK-010 ([3]; Fluc-mRNA LNP formulation): 58 times and ~60 times
RLU value / cell transfection efficiency, times that of compound 27 ([3]; Fluc-mRNA LNP formulation): 13 times
fluorescence absorption, times that of the compound 25 formulation ([3]; LNP formulation containing 0.075 μg of Fluc-mRNA): 3.7 times
fluorescence absorption, times that of the compound 25 formulation ([3]; LNP formulation containing 0.15 μg of Fluc-mRNA): 4.0 times
fluorescence absorption, times that of the compound 25 formulation ([3]; LNP formulation containing 0.225 μg of Fluc-mRNA): 7.0 times
fluorescence absorption, times that of the compound 25 formulation ([3]; LNP formulation containing 0.3 μg of Fluc-mRNA): 4.4 times
cell transfection efficiency, fold compared with compound 25 ([3]; mRNA transfection, content not stated): 7 times
PDI (%) [1]: 18.2%
Particle size (nm) [1]: 136.44 nm
expression intensity of Fluc-mRNA in mice over time (in words) [4]: highest expression intensity; also recorded: maintain high expression in vivo for a long time
expression in mice, times higher than that for MC3 [4, 6]: more than 25 times
expression in mice, times higher than that for compound 27 [4, 6]: > 6 times
increase in expression in mice compared with compound 25 [4, 6]: 7 fold
difference in toxicity to transfected cells between YK-009 and YK-010 [2]: ≥ 25%
Cell survival rate (%) ([2]; Fluc-mRNA content 0.375 μg, 24 hours): 100%
Cell survival rate (%) ([2]; Fluc-mRNA content 0.75 μg, 24 hours): 100%
Cell survival rate (%) ([2]; Fluc-mRNA content 1.125 μg, 24 hours): 100%
Cell survival rate (%) ([2]; Fluc-mRNA content 1.5 μg, 24 hours): 100%
Cell survival rate (%) [2, 5]: 100%
reduction in toxicity to transfected cells compared with compound 25 ([2]; mRNA transfection): 9%
toxicity to transfected cells, lower than that of MC3 ([2]; mRNA transfection): 12%
toxicity to transfected cells, lower than that of compound 23 ([2]; mRNA transfection): 13%
toxicity to transfected cells, lower than that of compound 27 ([2]; mRNA transfection): 16%

CCCCC/C=C\C/C=C\CCCCCCCCC(CCCCCCCC/C=C\C/C=C\CCCCC)OC(=O)CCCN(C)C [MC3, reference compound]
PDI (%) [1]: 18.3%
Particle size (nm) [1]: 205.20 nm
expression intensity of Fluc-mRNA in mice over time (in words) [4]: very low at each time
Cell survival rate (%) [2, 5]: 88%

CCCCCCCCCCCOC(=O)CCCCCN(CCO)CCCCCC(=O)OCC(CCCCCCCC)CCCCCCCC [YK-007, 2-octyldecyl 6-((2-hydroxyethyl)(6-oxo-6-(undecyloxy)hexyl)amino)hexanoate]
PDI (%) [1]: 13.6%
Particle size (nm) [1]: 178.06 nm
Cell survival rate (%) [2, 5]: 96%

CCCCCCCCCOC(=O)CCCN(CCO)CCCCCC(=O)OCC(CCCCCCCC)CCCCCCCC [YK-008, 2-octyldecyl 6-((4-(nonyloxy)-4-oxobutyl)(2-hydroxyethyl)amino)hexanoate]
PDI (%) [1]: 24.4%
Particle size (nm) [1]: 205.00 nm
Cell survival rate (%) [2, 5]: 91%

CCCCCCCCCCOC(=O)CCCN(CCO)CCCCC(=O)OCC(CCCCCCCC)CCCCCCCC [YK-006, 2-octyldecyl 5-((4-(decyloxy)-4-oxobutyl)(2-hydroxyethyl)amino)pentanoate]
PDI (%) [1]: 22.9%
Particle size (nm) [1]: 125.35 nm
Cell survival rate (%) [2, 5]: 96%

CCCCCCCCCCOC(=O)CCCN(CCO)CCCC(=O)OCC(CCCCCCCC)CCCCCCCC [YK-004, 2-octyldecyl 4-((4-(decyloxy)-4-oxobutyl)(2-hydroxyethyl)amino)butyrate]
PDI (%) [1]: 9.7%
Particle size (nm) [1]: 190.65 nm
Cell survival rate (%) [2, 5]: 87%

CCCCCCCCCOC(=O)CCCCCCCN(CCO)CCCCCCCCCC(=O)OC(CCCCCCCC)CCCCCCCC [Compound 23, nonyl 8-((2-hydroxyethyl)(10-((9-heptadecyl)oxy)-10-oxodecyl)amino)octanoate, reference compound]
PDI (%) [1]: 24.4%
Particle size (nm) [1]: 114.12 nm
expression intensity of Fluc-mRNA in mice over time (in words) [4]: decreased rapidly between 6 h and 48 h
Cell survival rate (%) [2, 5]: 87%
reduction in the cell survival rate compared with YK-009 ([2]; LNP formulation of Fluc-mRNA, 24 hours): 13%
